According to the NIST ThermoML archive (doi:10.1021/je300678r):
Several values for one entry are separate records, joined by “and”; a condition that tells them apart may be missing. Identical values can stand only once.

Key:
[1] = refractive index (Na D-line) (dimensionless); xn = mol fraction of the nth substance listed; conditions: 298.15 K, 101 kPa, Liquid, Standard Abbe refractometry
[2] = xn = mol fraction of the nth substance listed; conditions: 298.15 K, 101 kPa, Liquid, Vibrating tube method
[3] = excess molar enthalpy (molar enthalpy of mixing); xn = mol fraction of the nth substance listed; conditions: 298.15 K, 101 kPa, Liquid, Flow calorimetry
[4] = Liquid; for mass density: 101.33 kPa, Vibrating tube method; for vapor or sublimation pressure: Ebulliometric method (Recirculating still)
[5] = refractive index (Na D-line) (dimensionless); conditions: 101.33 kPa, Liquid, Standard Abbe refractometry

CCC(C)(C)O [2-methylbutan-2-ol] + CC(=O)CC(C)C
Conditions	excess molar enthalpy, [3] [kJ/mol]	mass density, [2]	refractive index, [1]
x2 = 0	–	–	1.40253
x2 = 0.0598	–	–	1.40217
x2 = 0.1012	0.442	804.47 kg/m3	–
x2 = 0.1216	–	–	1.40156
x2 = 0.2017	0.818	803 kg/m3	–
x2 = 0.2171	–	–	1.40043
x2 = 0.3013	1.1	801.45 kg/m3	–
x2 = 0.4017	1.28	800.01 kg/m3 and 800 kg/m3	–
x2 = 0.4095	–	–	1.39811
x2 = 0.5008	1.37	798.73 kg/m3	–
x2 = 0.5982	–	–	1.39615
x2 = 0.6006	1.34	797.67 kg/m3	–
x2 = 0.7009	1.21	796.87 kg/m3	–
x2 = 0.8017	0.948	796.33 kg/m3	–
x2 = 0.8202	–	–	1.39439
x2 = 0.9007	0.551	796.12 kg/m3	–
x2 = 0.9177	–	–	1.39383
x2 = 0.9563	–	–	1.39364

CC(=O)CC(C)C [4-methylpentan-2-one] + CCC(C)(C)O
Conditions	refractive index
[1], x1 = 1	1.39352

CCC(C)O (centres undefined) [butan-2-ol]
Conditions	mass density, 297.83 K [kg/m3]	refractive index, 297.83 K	refractive index, 298.15 K	vapor or sublimation pressure, 358.16 K [kPa]	vapor or sublimation pressure, 367.97 K	vapor or sublimation pressure, 372.43 K [kPa]	vapor or sublimation pressure, 372.71 K [kPa]
[4]	802.7	–	–	57.27	84.94 kPa and 85.16 kPa	100.62	101.88
[5]	–	1.3951	1.39512	–	–	–	–

CCC(C)O (centres undefined) [butan-2-ol] + CC(=O)CC(C)C
Conditions	refractive index
[1], x2 = 0	1.39512

CC(=O)CC(C)C [4-methylpentan-2-one]
Conditions	mass density [kg/m3]	refractive index	vapor or sublimation pressure [kPa]
[4], 297.84 K	796.4	–	–
[4], 340.18 K	–	–	19.35
[4], 340.66 K	–	–	19.78
[4], 343.42 K	–	–	21.92
[4], 351.55 K	–	–	30.01
[4], 352.71 K	–	–	31.12
[4], 353.11 K	–	–	31.71
[4], 359.22 K	–	–	39.35
[4], 359.39 K	–	–	39.63
[4], 359.58 K	–	–	40.05
[4], 362.88 K	–	–	44.7
[4], 365.9 K	–	–	49.68
[4], 366.61 K	–	–	50.66
[4], 368.06 K	–	–	53.01
[4], 368.07 K	–	–	53.42
[4], 368.14 K	–	–	53.26
[4], 368.15 K	–	–	53.24
[4], 368.7 K	–	–	54.29
[4], 371.34 K	–	–	59.43
[4], 371.64 K	–	–	59.75
[4], 371.91 K	–	–	60.19
[4], 374.37 K	–	–	65.18
[4], 376.26 K	–	–	69.16
[4], 376.49 K	–	–	69.98
[4], 378.8 K	–	–	74.83
[4], 380.65 K	–	–	79.56
[4], 381.06 K	–	–	80.16
[4], 382.66 K	–	–	84.16
[4], 384.99 K	–	–	90.58
[4], 388.07 K	–	–	98.7
[4], 388.31 K	–	–	99.4
[4], 388.63 K	–	–	100.35
[4], 388.65 K	–	–	100.41
[4], 389.06 K	–	–	101.85
[4], 389.49 K	–	–	102.78
[5], 297.84 K	–	1.3935	–
[5], 298.15 K	–	1.39346 and 1.39352	–

CCCCC(CC)CO (centres undefined) [2-ethyl-1-hexanol] + CC(=O)CC(C)C
Conditions	excess molar enthalpy, [3]	mass density, [2]	refractive index, [1]
x2 = 0	–	–	1.42949
x2 = 0.0516	–	–	1.42806
x2 = 0.1009	0.55 kJ/mol	826.11 kg/m3	–
x2 = 0.1017	–	–	1.4266
x2 = 0.2001	0.987 kJ/mol	823.29 kg/m3	–
x2 = 0.2045	–	–	1.42351
x2 = 0.3019	1.31 kJ/mol	820.27 kg/m3	–
x2 = 0.397	–	–	1.41723
x2 = 0.4014	1.51 kJ/mol	817.23 kg/m3	–
x2 = 0.5009	1.59 kJ/mol	813.99 kg/m3	–
x2 = 0.6018	1.55 kJ/mol	810.67 kg/m3	–
x2 = 0.605	–	–	1.41
x2 = 0.7019	1.38 kJ/mol	807.13 kg/m3	–
x2 = 0.7986	–	–	1.40249
x2 = 0.8009	1.08 kJ/mol and 1.07 kJ/mol	803.8 kg/m3 and 803.62 kg/m3	–
x2 = 0.9004	0.622 kJ/mol	800.06 kg/m3	–
x2 = 0.9051	–	–	1.39848
x2 = 0.9491	–	–	1.39587

CCC(C)(C)O [2-methylbutan-2-ol]
Conditions	mass density [kg/m3]	refractive index	vapor or sublimation pressure [kPa]
[4], 297.85 K	805.3	–	–
[4], 336.04 K	–	–	19.84
[4], 344.75 K	–	–	29.94
[4], 351.29 K	–	–	39.96
[4], 356.6 K	–	–	49.95
[4], 361.18 K	–	–	60.05
[4], 365.4 K	–	–	70.74
[4], 368.07 K	–	–	78.27
[4], 368.16 K	–	–	78.09
[4], 368.75 K	–	–	80.2
[4], 371.97 K	–	–	90.23
[4], 375.14 K	–	–	100.74
[4], 375.38 K	–	–	101.88
[4], 375.53 K	–	–	102.61
[5], 297.85 K	–	1.4025	–
[5], 298.15 K	–	1.40253	–

CC(=O)CC(C)C [4-methylpentan-2-one] + CCCCC(CC)CO
Conditions	refractive index
[1], x1 = 1	1.39346

CCCCC(CC)CO (centres undefined) [2-ethyl-1-hexanol]
Conditions	mass density [kg/m3]	refractive index	vapor or sublimation pressure [kPa]
[4], 297.86 K	828.8	–	–
[4], 389.76 K	–	–	9.88
[4], 407.11 K	–	–	19.88
[4], 418.24 K	–	–	30.03
[4], 426.95 K	–	–	39.67
[4], 430.79 K	–	–	45.05
[4], 433.51 K	–	–	49.22
[4], 437.24 K	–	–	55.52
[4], 439.49 K	–	–	59.61
[4], 442.12 K	–	–	64.64
[4], 445 K	–	–	70.55
[4], 447.04 K	–	–	75.01
[4], 449.02 K	–	–	79.55
[4], 451.06 K	–	–	84.49
[4], 456.77 K	–	–	99.44
[4], 457.83 K	–	–	102.2
[4], 458.23 K	–	–	102.91
[4], 458.24 K	–	–	103.26
[5], 297.86 K	–	1.4295	–
[5], 298.15 K	–	1.42949	–

CC(=O)CC(C)C [4-methylpentan-2-one] + CCC(C)O
Conditions	excess molar enthalpy, [3] [kJ/mol]	mass density, [2]	refractive index, [1]
x1 = 0.0502	–	–	1.39473
x1 = 0.1005	–	–	1.39443
x1 = 0.1009	0.675	800.64 kg/m3	–
x1 = 0.2005	–	–	1.39392
x1 = 0.2009	1.14	799.14 kg/m3	–
x1 = 0.3007	1.44	798.02 kg/m3	–
x1 = 0.3998	–	–	1.39335
x1 = 0.4015	1.61	797.16 kg/m3 and 797.13 kg/m3	–
x1 = 0.5008	1.66	796.55 kg/m3	–
x1 = 0.602	–	–	1.39309
x1 = 0.6021	1.59	796.12 kg/m3	–
x1 = 0.7004	1.41	795.9 kg/m3	–
x1 = 0.7988	–	–	1.39313
x1 = 0.7998	1.1	795.84 kg/m3	–
x1 = 0.8985	–	–	1.39325
x1 = 0.8998	0.648	795.97 kg/m3	–
x1 = 0.9508	–	–	1.39335
x1 = 1	–	–	1.39346
